Measured values published in patent publication US11324178B2, “Wheat having resistance to glyphosate due to alterations in 5-enol- pyruvylshikimate-3 phosphate synthase” (priority 2015, dated 2022).
Entries after “also recorded” stand apart in the source; their conditions may differ.

Assays:
[1] = system: wheat seeds homozygous for one single preferred EPSPS mutation (T173I B genome, T173I D genome or P177S A genome); test: Growth chamber germination on MS medium containing glyphosate, shoot and root length; type: in vivo, Triticum aestivum; conditions: 0.1x MS medium, 0.15 mM glyphosate, 10-14 days of development
Source text: (§1) Plants homozygous for the single preferred mutations (the T173I mutation in the B genome, the T173I mutation in the D genome and the P177S mutation in the A genome) were identified in the M3 seeds. Wild type siblings were also identified and used as controls. Plants that were homozygous for the T173I mutation in the D genome were crossed to plants that were homozygous for the P177S mutation in the A genome to generate double mutant plants.
(§2) Growth Chamber Studies: Seeds from plants that were homozygous for one of the single preferred mutations and seeds from their wild type sibling control plants were surface sterilized, placed on moist germination paper overnight, and then grown in glass tubes with 0.1× Murashige & Skoog (MS) medium containing 0 or 0.15 mM glyphosate. Germination was performed in a growth chamber under a light condition of 16 hours of light/8 hours of dark of 80 microEinsteins. At 10-14 days of development, shoot and root lengths were measured.
(§3) Seeds from plants that were homozygous for the double preferred mutations (both T173 I and P177S) were compared to seeds that were homozygous for each of the single preferred mutation for their ability to survive on MS media containing glyphosate. Seeds from their wild type sibling plants were used as […]. Seeds were germinated as described above.

[2] = system: wheat seeds homozygous for the double preferred EPSPS mutations (T173I D genome and P177S A genome); test: as above; type: in vivo, Triticum aestivum; conditions: MS media containing glyphosate, double mutation seeds compared with single mutation seeds
Source text: as §1, §2, §3

[3] = system: wild type sibling control seeds (wheat cultivar Express); test: as above; type: in vivo, Triticum aestivum; conditions: 0.1x MS medium, 0.15 mM glyphosate, 10-14 days of development
Source text: as §1, §2, §3

E. coli EPSPS T97I = E. coli EPSPS T97I (Escherichia coli, UniProt P0A6D3, T97I); conditions: Funke et al. 2009; cited from earlier work
[4] = system: maize EPSPS (threonine to isoleucine); conditions: U.S. Pat. No. 6,566,587; cited from earlier work

Chain of E. coli EPSPS T97I (P0A6D3 whole entry T97I): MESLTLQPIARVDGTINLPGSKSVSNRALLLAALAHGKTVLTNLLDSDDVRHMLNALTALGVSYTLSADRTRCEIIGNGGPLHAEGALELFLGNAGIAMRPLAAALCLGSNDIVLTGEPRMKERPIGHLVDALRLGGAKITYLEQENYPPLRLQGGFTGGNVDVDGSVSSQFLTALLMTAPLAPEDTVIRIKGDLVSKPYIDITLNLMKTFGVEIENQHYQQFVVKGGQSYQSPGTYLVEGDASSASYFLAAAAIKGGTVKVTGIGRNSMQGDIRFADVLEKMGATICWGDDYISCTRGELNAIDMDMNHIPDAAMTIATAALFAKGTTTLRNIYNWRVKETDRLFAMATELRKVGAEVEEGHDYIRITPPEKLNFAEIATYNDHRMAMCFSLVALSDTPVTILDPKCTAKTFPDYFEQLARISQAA

For `O=C(O)CNCP(=O)(O)O` [glyphosate], the “growth (shoot and root length) of seeds on medium containing glyphosate” value (“growth (shoot and root length) of seeds” for short) [1] was “the majority of seeds with mutations grew well; also recorded: resistant to glyphosate and grew well”, the “growth (shoot and root length) of seeds” value [2] was “more resistant to glyphosate than seeds that were homozygous for each of the single preferred mutations” and the “growth (shoot and root length) of seeds” value [3] was “for the most part failed to grow”. For the same compound, the “sensitivity of mutated enzyme to glyphosate” value (E. coli EPSPS T97I) was “leads to sensitivity to glyphosate” and the “inhibition of mutated enzyme by glyphosate” value [4] was “reduced inhibition by glyphosate”.
